The values below are quoted from earlier work in patent publication US20100227874A1, “REDUCTION OF OXIDATIVE STRESS DAMAGE DURING OR AFTER EXERCISE” (NESTEC S.A., priority 2007, published 2010).

The test system of this series is rat adipocytes. Particulars: insulin-potentiating epididymal fat-cell assay with rat adipocytes.

In the case of `O=C(O[C@@H]1Cc2c(O)cc(O)cc2O[C@@H]1c1ccc(O)c(O)c1)c1cc(O)c(O)c(O)c1` [epicatechin gallate], the “Insulin activity in vitro” value is “enhance insulin activity”.
In the case of `O=C(O[C@@H]1Cc2c(O)cc(O)cc2O[C@@H]1c1cc(O)c(O)c(O)c1)c1cc(O)c(O)c(O)c1` [epigallocatechin gallate], the “Insulin activity in vitro” value is “enhance insulin activity”.
